Laboratory results: US8912120B2, “Herbicidal compositions comprising 4-amino-3-chloro-5-fluoro-6-(4-chloro-2-fluoro-3-methoxyphenyl) pyridine-2-carboxylic acid or a derivative thereof and synthetic auxin herbicides” (Dow AgroSciences, LLC., priority 2012, dated 2014)

What was measured:
[1] = test system: SCPMA; assay: Example II: in-water applied herbicidal mixtures, transplanted paddy rice, SCPMA; format: in vivo
How it was run: (§1)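 Greenhouse paddy pots of dried mud; rice seedlings at the second or third leaf stage were transplanted into mud 4 days before treatment. Osmocote 19:6:12 supplied nutrients. Solutions were pipetted individually and sequentially into the paddy water, with equal acetone and crop oil concentrate across treatments; controls got solvent blank.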

[2] = test system: IPOHE; assay: Example I: postemergence foliar-applied herbicidal mixtures, direct seeded rice, IPOHE; format: in vivo, Ipomoea hederacea (ivyleaf morningglory)
Method: (§2) The soil matrix was contained in plastic pots with a volume of 1 quart and a surface area of 83.6 square centimeters (cm^2). […] The plants were grown for 8-22 days in a greenhouse with an approximate 14 h photoperiod which was maintained at about 29° C. during the day and 26° C. during the night. Nutrients (Peters Excel® 15-5-15 5-Ca 2-Mg and iron chelate) were applied in the irrigation solution as needed and water was added on a regular basis. Supplemental lighting was provided with overhead metal halide 1000-Watt lamps as necessary. The plants were employed for testing when they reached the first through fourth true leaf stage.
(§3) Treatments consisted of the acid or esters of 4-amino-3-chloro-5-fluoro-6-(4-chloro-2-fluoro-3-methoxy-phenyl)pyridine-2-carboxylic acid (Compound A), each formulated as an SC (suspension concentrate), and various herbicidal components alone and in combination. Forms of compound A were applied on an acid equivalent basis.
(§4) For treatments comprised of formulated compounds, measured amounts of compounds were placed individually in 25 mL glass vials and diluted in a volume of 1.25% (v/v) Agri-Dex® crop oil concentrated to obtain 12× stock solutions. […] Application solutions were prepared by adding an appropriate amount of each stock solution (e.g., 1 mL) and diluted to the appropriate final concentrations with the addition of 10 mL of an aqueous mixture of 1.25% (v/v) crop oil concentrate so that the final spray solutions contained 1.25+/−0.05% (v/v) crop oil concentrate.
(§5) All stock solutions and applications solutions were visually inspected for compound compatibility prior to application. Spray solutions were applied to the plant material with an overhead Mandel track sprayer equipped with a 8002E nozzles calibrated to deliver 187 L/ha over an application area of 0.503 m^2 at a spray height of 18 to 20 inches (46 to 50 cm) above average plant canopy height. Control plants were sprayed in the same manner with the solvent blank.
(§6) The treated plants and control plants were placed in a greenhouse as described above and watered by sub-irrigation to prevent wash-off of the test compounds. After approximately 3 weeks, the condition of the test plants as compared with that of the untreated plants was determined visually and scored on a scale of 0 to 100 percent where 0 corresponds to no injury or growth inhibition and 100 corresponds to complete kill.
(§7) Colby's equation was used to determine the herbicidal effects expected from the mixtures (Colby, S. R. 1967. Calculation of the synergistic and antagonistic response of herbicide combinations. Weeds 15:20-22).
(§8) The following equation was used to calculate the expected activity of mixtures containing two active ingredients, A and B: Expected=A+B−(A×B/100)
(§9) A=observed efficacy of active ingredient A at the same concentration as used in the mixture.
(§10) B=observed efficacy of active ingredient B at the same concentration as used in the mixture.

[3] = test system: PANMI; assay: Example III: postemergence foliar-applied herbicidal mixtures, row crop weeds, PANMI; format: in vivo, Panicum miliaceum (wild-proso millet); conditions: 16 DAA
Method: The plants were grown for 7-31 days (d) in a greenhouse with an approximate 15 hour (h) photoperiod which was maintained at about 23-29° C. during the day and 22-28° C. during the night.

[4] = test system: ECHCO; assay: Example I: postemergence foliar-applied herbicidal mixtures, direct seeded rice, ECHCO; conditions: for Visual Weed Control (%) - 21 DAA ECHCO Obs: Fluroxypyr MHE 0 gae/ha
Method: as §2, §3, §4, §5, §6, §7, §8, §9, §10

[5] = test system: LEFCH; assay: Example II: in-water applied herbicidal mixtures, transplanted paddy rice, LEFCH; format: in vivo, Leptochloa chinensis (Chinese sprangletop); conditions: for Visual Weed Control (%) - 21 DAA LEFCH Obs / Visual Weed Control (%) - 25 DAA LEFCH Obs: in-water application
How it was run: as §1

[6] = test system: ECHOR; assay: Example II: in-water applied herbicidal mixtures, transplanted paddy rice, ECHOR; format: in vivo, Echinochloa oryzoides (early watergrass); conditions: for Visual Weed Control (%) - 20 DAA ECHOR Obs / Visual Weed Control (%) - 22 DAA ECHOR Obs: in-water application
How it was run: as §1

COc1c(Cl)ccc(-c2nc(C(=O)OCc3ccccc3)c(Cl)c(N)c2F)c1F [Compound A Benzyl Ester, benzyl ester of 4-amino-3-chloro-5-fluoro-6-(4-chloro-2-fluoro-3-methoxy-phenyl)pyridine-2-carboxylic acid]
Visual Weed Control (%) Obs ([1]; 20 DAA, 35 gae/ha): 0%
Visual Weed Control (%) Obs ([1]; 20 DAA, 70 gae/ha): 0%
Visual Weed Control (%) Obs ([1]; 21 DAA, 4.38 gae/ha): 0%
Visual Weed Control (%) Obs ([1]; 21 DAA, 8.75 gae/ha): 0%
Visual Weed Control (%) Obs ([1]; 21 DAA, 17.5 gae/ha): 0%
Visual Weed Control (%) Obs ([1]; 22 DAA, 4.38 gae/ha): 0%
Visual Weed Control (%) Obs ([1]; 22 DAA, 8.75 gae/ha): 0%
Visual Weed Control (%) Obs ([1]; 22 DAA, 17.5 gae/ha): 0%
Visual Weed Control (%) - 20 DAA IPOHE Obs ([2]; 4.38 gae/ha): 0%
Visual Weed Control (%) - 20 DAA IPOHE Obs ([2]; 8.75 gae/ha): 10%
Visual Weed Control (%) - 20 DAA IPOHE Obs ([2]; 17.5 gae/ha): 25%
Visual Weed Control (%) Obs ([3]; 3.75 gae/ha): 15%
Visual Weed Control (%) Obs ([3]; 7.5 gae/ha): 50%
Visual Weed Control (%) Obs ([3]; 15 gae/ha): 75%
Visual Weed Control (%) - 20 DAA ECHCO Obs ([4]; 4.38 gae/ha): 50%
Visual Weed Control (%) - 23 DAA ECHCO Obs ([4]; 4.38 gae/ha): 40%
Visual Weed Control (%) - 20 DAA ECHCO Obs ([4]; 8.75 gae/ha): 75%
Visual Weed Control (%) - 23 DAA ECHCO Obs ([4]; 8.75 gae/ha): 40%
Visual Weed Control (%) - 23 DAA ECHCO Obs ([4]; 17.5 gae/ha): 75%
Visual Weed Control (%) - 21 DAA ECHCO Obs ([4]; Compound A Benzyl Ester rate printed '—' (second line)): 75%
Visual Weed Control (%) - 21 DAA ECHCO Obs ([4]; Compound A Benzyl Ester rate printed '—'): 70%
Visual Weed Control (%) - 21 DAA LEFCH Obs ([5]; 4.38 gae/ha): 0%
Visual Weed Control (%) - 21 DAA LEFCH Obs ([5]; 8.75 gae/ha): 0%
Visual Weed Control (%) - 25 DAA LEFCH Obs ([5]; 8.75 gae/ha): 50%
Visual Weed Control (%) - 21 DAA LEFCH Obs ([5]; 17.5 gae/ha): 0%
Visual Weed Control (%) - 25 DAA LEFCH Obs ([5]; 17.5 gae/ha): 90%
Visual Weed Control (%) Obs ([5]; 19 DAA, 35 gae/ha): 80%
Visual Injury (%) Obs ([5]; 25 DAA, 8.75 gae/ha): 50%
Visual Weed Control (%) Obs ([5]; 25 DAA, 8.75 gae/ha): 50%
Visual Injury (%) Obs ([5]; 25 DAA, 17.5 gae/ha): 90%
Visual Weed Control (%) Obs ([5]; 25 DAA, 17.5 gae/ha): 90%
Visual Weed Control (%) - 20 DAA ECHOR Obs ([6]; 4.38 gae/ha): 10%
Visual Weed Control (%) - 20 DAA ECHOR Obs ([6]; 8.75 gae/ha): 20%
Visual Weed Control (%) - 22 DAA ECHOR Obs ([6]; 8.75 gae/ha): 25%
Visual Weed Control (%) - 20 DAA ECHOR Obs ([6]; 17.5 gae/ha): 50%
Visual Weed Control (%) - 22 DAA ECHOR Obs ([6]; 17.5 gae/ha): 45%
pest or weed control at 8 g/ha ([6]; Echinochloa oryzoides, 456 h, read-out: Visual Weed Control (%) Obs, 19 DAA, 8 gae/ha): 10%
pest or weed control at 16 g/ha ([6]; Echinochloa oryzoides, 456 h, read-out: Visual Weed Control (%) Obs, 19 DAA, 16 gae/ha): 25%
pest or weed control at 32 g/ha ([6]; Echinochloa oryzoides, 456 h, read-out: Visual Weed Control (%) Obs, 19 DAA, 32 gae/ha): 35%
pest or weed control at 4.38 g/ha ([6]; Echinochloa oryzoides, 480 h, read-out: Visual Weed Control (%) Obs, 20 DAA, 4.38 gae/ha): 25%
pest or weed control at 8.75 g/ha ([6]; Echinochloa oryzoides, 480 h, read-out: Visual Weed Control (%) Obs, 20 DAA, 8.75 gae/ha): 20%
pest or weed control at 17.5 g/ha ([6]; Echinochloa oryzoides, 480 h, read-out: Visual Weed Control (%) Obs, 20 DAA, 17.5 gae/ha): 30%
pest or weed control at 35 g/ha ([6]; Echinochloa oryzoides, 480 h, read-out: Visual Weed Control (%) Obs, 20 DAA, 35 gae/ha): 73%
